Reference: patent US10413505B1, “Pharmaceutical compositions and methods of using the same” (priority 2017, dated 2019)
Where a name gives a salt, the structure may show the parent alone. Read-outs that look alike come from different tables or passages of the source.

Assays:
Sprague Dawley rats [1] = assay: Example 10 cocaethylene HCl intranasal toxicity, Single-Dose Phase; type: in vivo, rat
Procedure: Cocaethylene HCl in the vehicle (deionized water) was administered by intranasal instillation once to a group (Group 2) of Sprague Dawley rats at a dose level of 2.1 mg/kg. […] The dose volume was 0.22 mL/kg, divided between the 2 nares, for both groups. Groups 1 and 2 each consisted of 20 animals/sex. Following dose administration, 10 animals/sex/group were euthanized on Study Day 1; the remaining 10 animals/sex/group were euthanized following a 14-day non-dosing (recovery) period. Criteria for evaluation included daily mortality observations, daily clinical observations, detailed physical observations, body weights, food consumption, clinical pathology (hematology, coagulation, serum chemistry, and urinalysis), organ weights, gross pathology, and microscopic examination of select tissues.
(§1) The vehicle and test article formulations were administered by intranasal instillation into each naris via a syringe equipped with stainless steel-shafted, stainless steel ball-tipped dosing cannula once (Single-Dose Phase) or once daily for 14 consecutive days (Repeat-Dose Phase), through the day prior to the primary necropsy. The same syringe and dosing cannula was used to administer the dose across both nares for a given animal on a given dosing day. The total dose volume administered per dose was split approximately equally across each naris, such that approximately half of the total dose volume was administered into one naris, and the remaining was administered into the other naris. Treatment administration across each naris for an individual animal occurred at approximately the same time. The dose volume for all groups was 0.22 mL/kg. Individual doses were based on the most recently recorded body weights. Adjusted doses became effective the day of collection of the weekly body weights. The first day of dosing was Study Day 0; the first week of dosing was Study Week 0.
(§2) All animals were observed twice daily, once in the morning and once in the afternoon, for mortality and moribundity.
(§3) Clinical examinations were performed at the time of dose administration and 1 to 2 hours following dose administration. During the recovery period, the animals were observed once daily. The absence or presence of findings was recorded for individual animals at the scheduled intervals. For the Single-Dose Phase, detailed physical examinations were conducted on all animals within 4 days of receipt, on the day of randomization, and on Study Days 0, 1, 7, and 14. For the Repeat-Dose Phase, detailed physical examinations were conducted on all animals within 4 days of receipt, on the day of randomization, weekly (±2 days) during the study period, and on the day of the scheduled necropsies. Daily observations during the recovery period were not necessary on days when detailed physical examinations were conducted.
(§4) Individual body weights were recorded within 4 days of receipt, on the day of randomization, Study Day 0 (prior to dosing), weekly (±2 days) during the study period, and on the day prior to the scheduled necropsies (nonfasted). Mean body weights and mean body weight changes were calculated for the corresponding intervals. Final body weights (fasted) were recorded on the day of the scheduled necropsies.
(§5) Cage food weights were recorded once weekly (±2 days) beginning following randomization and throughout the study period. Food consumption was calculated as g/animal/day for the corresponding body weight intervals.
(§6) Blood and urine samples for clinical pathology evaluations (hematology, coagulation, serum chemistry, and urinalysis) were collected from all animals assigned to the scheduled necropsies. The animals were fasted overnight prior to blood collection while in metabolism cages for urine collection. Blood was collected from a jugular vein and from the vena cava at the time of necropsy. Blood was collected into tubes containing potassium K2EDTA (hematology), sodium citrate (coagulation), or no anticoagulant (serum chemistry). […]

Sprague Dawley rats [2] = assay: Example 10 cocaethylene HCl intranasal toxicity, Repeat-Dose Phase; type: in vivo, rat
Procedure: Cocaethylene hydrochloride in the vehicle was administered by intranasal instillation once daily for 14 days to a group (Group 2) of Sprague Dawley rats at a dosage level of 2.1 mg/kg/day. […] The dose volume was 0.22 mL/kg, divided between the 2 nares, for both groups. Groups 1 and 2 each consisted of 15 animals/sex. Following 14 days of dose administration, 10 animals/sex/group were euthanized; the remaining […] animals/sex/group were euthanized following a 14-day nondosing (recovery) period. Criteria for evaluation included daily mortality observations, daily clinical observations, detailed physical observations, body weights, food consumption, clinical pathology (hematology, coagulation, serum chemistry, and urinalysis), organ weights, gross pathology, and microscopic examination of select tissues.
as §1, §2, §3, §4, §5, §6

[3] = test system: subjects undergoing diagnostic procedures and surgeries on or through the mucous membranes of the nasal cavities
Source text: Example 8 was a randomized, prospective, double-blind, multicenter, single-dose, placebo and dose-controlled, parallel-group study to evaluate the safety of the 4% and 8% cocaine hydrochloride pharmaceutical compositions as described in Example 4 used as a local anesthetic for diagnostic procedures and surgeries on or through the mucous membranes of the nasal cavities (e.g., nasal/sinus endoscopy, sinusotomy, fracture nasal turbinate(s), lysis intranasal synechia, insertion of nasal septal prosthesis, intranasal biopsy, excision of nasal polyps, excision turbinate(s), removal of an intranasal foreign body, septoplasty, or sinus debridement). […] The study consisted of a screening period within 14 days of a diagnostic procedure or surgery; a treatment period on the day of the diagnostic procedure or surgery (Day 1); and a follow-up visit (Day 8).
Two saturated pledgets were placed into each nasal cavity and up against the septum for 20 minutes. After 20 minutes the pledgets were removed from the subjects.
To address the potential for the impact of body weight on efficacy and safety, the study conducted the following additional analyses: • Analysis of efficacy (primary endpoint) for 2 subgroups of low weight subjects: <50 kg and <60 kg (see Table 53) • Analysis of safety (AEs) for 2 subgroups of low weight subjects: <50 kg and <60 kg (see Table 54) • Analysis of safety (AEs) for 2 subgroups of subjects based on dose determined on a mg/kg basis (regardless of 4% or 8% dose): ≤3 mg/kg or >3 mg/kg) (Table 55) Note: There is overlap between the body weight groups examined because the <60 kg group has no lower limit of weight.

[4] = 2.1 mg/kg once, intranasal instillation
[5] = 2.1 mg/kg/day for 14 days, intranasal instillation

CCOC(=O)[C@@H]1C2CCC(C[C@@H]1OC(=O)c1ccccc1)N2C (stereo partly shown) [cocaethylene HCl, cocaethylene hydrochloride]
body weights (Sprague Dawley rats [1]; [4]): unaffected
clinical observations (Sprague Dawley rats [1]; [4]): no test article-related clinical observations
food consumption (Sprague Dawley rats [1]; [4]): unaffected
hematology and coagulation parameters (Sprague Dawley rats [1]; [4]): unaffected
macroscopic examination at necropsy (Sprague Dawley rats [1]; [4]): no test article-related macroscopic findings
organ weights (Sprague Dawley rats [1]; [4]): unaffected
serum chemistry parameters (Sprague Dawley rats [1]; [4]): unaffected
survival (Sprague Dawley rats [1]; [4]): All animals survived
urinalysis parameters (Sprague Dawley rats [1]; [4]): unaffected
microscopic examination (nasal cavity with turbinates) (Sprague Dawley rats [1]; 2.1 mg/kg once, intranasal instillation, also after 14-day recovery): No test article-related microscopic findings
pH of the dosing formulation (Sprague Dawley rats [1]; Single-Dose Phase, 9.6 mg/mL in deionized water, pH meter): 2.81
tolerability (Sprague Dawley rats [2]; 2.1 mg/kg once or once daily for 14 days, intranasal instillation): well tolerated
body weights (Sprague Dawley rats [2]; [5]): unaffected
clinical observations (Sprague Dawley rats [2]; [5]): no test article-related clinical observations
food consumption (Sprague Dawley rats [2]; [5]): unaffected
hematology and coagulation parameters (Sprague Dawley rats [2]; [5]): unaffected
macroscopic examination at necropsy (Sprague Dawley rats [2]; [5]): no test article-related macroscopic findings
organ weights (Sprague Dawley rats [2]; [5]): unaffected
serum chemistry parameters (Sprague Dawley rats [2]; [5]): unaffected
survival (Sprague Dawley rats [2]; [5]): All animals survived
urinalysis parameters (Sprague Dawley rats [2]; [5]): unaffected
microscopic examination (nasal cavity with turbinates) (Sprague Dawley rats [2]; 2.1 mg/kg/day for 14 days, intranasal instillation, also after 14-day recovery): No test article-related microscopic findings
pH of the dosing formulation (Sprague Dawley rats [2]; Repeat-Dose Phase, 9.6 mg/mL in deionized water, pH meter): 2.81
no-observed-effect level (NOEL) (Sprague Dawley rats [2]; intranasal instillation once or once daily for 14 days): 2.1 mg/kg/day

COC(=O)[C@H]1[C@@H](OC(=O)c2ccccc2)C[C@@H]2CC[C@H]1N2C [Cocaine HCl]
Adverse events: Anxiety ([3]; >3% mg/kg): 2 (0.8) n (%)
Adverse events: Dermatitis allergic ([3]; >3% mg/kg): 1 (0.4) n (%)
Adverse events: Dizziness ([3]; >3% mg/kg): 1 (0.4) n (%)
Adverse events: Dysphonia ([3]; >3% mg/kg): 0 n (%)
Adverse events: Epistaxis ([3]; >3% mg/kg): 2 (0.8) n (%)
Adverse events: Eye disorders ([3]; >3% mg/kg): 1 (0.4) n (%)
Adverse events: Facial pain ([3]; >3% mg/kg): 1 (0.4) n (%)
Adverse events: Fatigue ([3]; >3% mg/kg): 0 n (%)
Adverse events: Foreign body sensation in eyes ([3]; >3% mg/kg): 1 (0.4) n (%)
Adverse events: Gastrointestinal disorders ([3]; >3% mg/kg): 1 (0.4) n (%)
Adverse events: General disorders and administration site conditions ([3]; >3% mg/kg): 1 (0.4) n (%)
Adverse events: Headache ([3]; >3% mg/kg): 4 (1.6) n (%)
Adverse events: Hypertension ([3]; >3% mg/kg): 0 n (%)
Adverse events: Injury, poisoning and procedural complications ([3]; >3% mg/kg): 1 (0.4) n (%)
Adverse events: Lip swelling ([3]; >3% mg/kg): 1 (0.4) n (%)
Adverse events: Masculoskeletal and connective tissue disorders ([3]; >3% mg/kg): 1 (0.4) n (%)
Adverse events: Medication error ([3]; >3% mg/kg): 1 (0.4) n (%)
Adverse events: Nasal congestion ([3]; >3% mg/kg): 1 (0.4) n (%)
Adverse events: Nausea ([3]; >3% mg/kg): 0 n (%)
Adverse events: Neck pain ([3]; >3% mg/kg): 1 (0.4) n (%)
Adverse events: Nervous system disorders ([3]; >3% mg/kg): 5 (2.0) n (%)
Adverse events: Psychiatric disorders ([3]; >3% mg/kg): 2 (0.8) n (%)
Adverse events: Respiratory, thoracic and mediastinal disorders ([3]; >3% mg/kg): 3 (1.2) n (%)
Adverse events: Rhinorrhea ([3]; >3% mg/kg): 0 n (%)
Adverse events: Skin and subcutaneous tissue disorders ([3]; >3% mg/kg): 2 (0.8) n (%)
Adverse events: Sneezing ([3]; >3% mg/kg): 0 n (%)
Adverse events: Upper-airway cough syndrome ([3]; >3% mg/kg): 0 n (%)
Adverse events: Vascular disorders ([3]; >3% mg/kg): 0 n (%)
Adverse events: Vision blurred ([3]; >3% mg/kg): 0 n (%)
Any AE ([3]; >3% mg/kg): 14 (5.7) n (%)
Adverse events: Cold sweat ([3]; >3% mg/kg, under General disorders and administration site conditions): 0 n (%)
Adverse events: Cold sweat ([3]; >3% mg/kg, under Skin and subcutaneous tissue disorders): 1 (0.4) n (%)
Adverse events: Anxiety ([3]; ≤3 mg/kg): 0 n (%)
Adverse events: Dermatitis allergic ([3]; ≤3 mg/kg): 0 n (%)
Adverse events: Dizziness ([3]; ≤3 mg/kg): 1 (0.3) n (%)
Adverse events: Dysphonia ([3]; ≤3 mg/kg): 1 (0.3) n (%)
Adverse events: Epistaxis ([3]; ≤3 mg/kg): 3 (1.0) n (%)
Adverse events: Eye disorders ([3]; ≤3 mg/kg): 1 (0.3) n (%)
Adverse events: Facial pain ([3]; ≤3 mg/kg): 0 n (%)
Adverse events: Fatigue ([3]; ≤3 mg/kg): 1 (0.3) n (%)
Adverse events: Foreign body sensation in eyes ([3]; ≤3 mg/kg): 0 n (%)
Adverse events: Gastrointestinal disorders ([3]; ≤3 mg/kg): 1 (0.3) n (%)
Adverse events: General disorders and administration site conditions ([3]; ≤3 mg/kg): 2 (0.7) n (%)
Adverse events: Headache ([3]; ≤3 mg/kg): 7 (2.3) n (%)
Adverse events: Hypertension ([3]; ≤3 mg/kg): 1 (0.3) n (%)
Adverse events: Injury, poisoning and procedural complications ([3]; ≤3 mg/kg): 0 n (%)
Adverse events: Lip swelling ([3]; ≤3 mg/kg): 0 n (%)
Adverse events: Masculoskeletal and connective tissue disorders ([3]; ≤3 mg/kg): 0 n (%)
Adverse events: Medication error ([3]; ≤3 mg/kg): 0 n (%)
Adverse events: Nasal congestion ([3]; ≤3 mg/kg): 0 n (%)
Adverse events: Nausea ([3]; ≤3 mg/kg): 1 (0.3) n (%)
Adverse events: Neck pain ([3]; ≤3 mg/kg): 0 n (%)
Adverse events: Nervous system disorders ([3]; ≤3 mg/kg): 7 (2.3) n (%)
Adverse events: Psychiatric disorders ([3]; ≤3 mg/kg): 0 n (%)
Adverse events: Respiratory, thoracic and mediastinal disorders ([3]; ≤3 mg/kg): 6 (2.0) n (%)
Adverse events: Rhinorrhea ([3]; ≤3 mg/kg): 1 (0.3) n (%)
Adverse events: Skin and subcutaneous tissue disorders ([3]; ≤3 mg/kg): 0 n (%)
Adverse events: Sneezing ([3]; ≤3 mg/kg): 1 (0.3) n (%)
Adverse events: Upper-airway cough syndrome ([3]; ≤3 mg/kg): 0 n (%)
Adverse events: Vascular disorders ([3]; ≤3 mg/kg): 1 (0.3) n (%)
Adverse events: Vision blurred ([3]; ≤3 mg/kg): 1 (0.3) n (%)
Any AE ([3]; ≤3 mg/kg): 13 (4.3) n (%)
Adverse events: Cold sweat ([3]; ≤3 mg/kg, under General disorders and administration site conditions): 1 (0.3) n (%)
Adverse events: Cold sweat ([3]; ≤3 mg/kg, under Skin and subcutaneous tissue disorders): 0 n (%)
